Reference: ChEMBL document CHEMBL1132355, “Novel arylpyrazino[2,3-c][1,2,6]thiadiazine 2,2-dioxides as platelet aggregation inhibitors. 2. Optimization by quantitative structure-activity relationships” (J Med Chem, 1999)

Test: Inhibition of platelet aggregation (rabbit platelet-rich plasma),induced by arachidonic acid, (100% inhibitory response)
Conditions: Oryctolagus cuniculus

| EC100 [µg/mL] | SMILES |
| --- | --- |
| 1 | CCN1c2ncc(-c3ccccc3)nc2C(N)=NS1(=O)=O |
| 0.3 | CCN1c2nc(-c3ccccc3)c(-c3ccccc3)nc2C(N)=NS1(=O)=O |
| 10 | CCOc1nc2c(nc1-c1ccc(Cl)cc1)C(N)=NS(=O)(=O)N2CC |
| 1 | CC(C)(C)OC(=O)CN1c2nc(-c3ccccc3)c(-c3ccccc3)nc2C(N)=NS1(=O)=O |
| 1 | CN1c2nc(-c3ccc(Br)cc3)c(-c3ccc(Br)cc3)nc2C(N)=NS1(=O)=O |
| 3 | CCN1c2nc(-c3ccc(Cl)cc3)c(-c3ccc(Cl)cc3)nc2C(N)=NS1(=O)=O |
| 10 | CCN1c2nc(-c3ccccc3)c(Cl)nc2C(N)=NS1(=O)=O |
| 1 | CCN1c2nc(-c3ccccc3)c(C)nc2C(N)=NS1(=O)=O |
| 3 | CN1c2nc(-c3ccccn3)c(-c3ccccn3)nc2C(N)=NS1(=O)=O |
| > 10 | CCN1c2nc(-c3ccccc3)cnc2C(N)=NS1(=O)=O |
| 0.1 | COc1nc2c(nc1-c1ccccc1)C(N)=NS(=O)(=O)N2C |
| 0.3 | CCOc1nc2c(nc1-c1ccccc1)C(N)=NS(=O)(=O)N2C |
| 3 | CCN1c2nc(-c3cccs3)c(-c3cccs3)nc2C(N)=NS1(=O)=O |
| 3 | NC(=O)CN1c2nc(-c3ccccc3)c(-c3ccccc3)nc2C(N)=NS1(=O)=O |
| 1 | CN1c2nc(-c3ccco3)c(-c3ccco3)nc2C(N)=NS1(=O)=O |
| 10 | CCOC(=O)CN1c2nc(-c3ccccc3)c(Br)nc2C(N)=NS1(=O)=O |
| > 10 | CCOC(=O)CN1c2nc(-c3ccccc3)cnc2C(N)=NS1(=O)=O |
| 1 | CCN1c2nc(-c3ccccc3)c(Br)nc2C(N)=NS1(=O)=O |
| > 10 | COc1cccc(-c2nc3c(nc2-c2cccc(OC)c2)N(C)S(=O)(=O)N=C3N)c1 |
| 0.3 | CN1c2ncc(-c3ccccc3)nc2C(N)=NS1(=O)=O |
| > 10 | Cc1ccc(-c2cnc3c(n2)N(C)S(=O)(=O)N=C3N)cc1 |
| 3 | NC1=NS(=O)(=O)N(Cc2ccccc2)c2nc(-c3ccccc3)c(-c3ccccc3)nc21 |
| 0.03 | CN1c2ncc(-c3ccccc3F)nc2C(N)=NS1(=O)=O |
| 0.3 | CN1c2nc(-c3ccc(F)cc3)c(-c3ccc(F)cc3)nc2C(N)=NS1(=O)=O |
| 0.1 | CCOC(=O)CN1c2nc(-c3ccccc3)c(-c3ccccc3)nc2C(N)=NS1(=O)=O |
| 0.001 | COc1ccc(-c2nc3c(nc2-c2ccc(OC)cc2)N(C)S(=O)(=O)N=C3N)cc1 |
| 1 | CCN1c2nc(C)c(-c3ccccc3)nc2C(N)=NS1(=O)=O |
